Values quoted from earlier work in publication PMC3544362 (Journal of medicinal chemistry, 2012).
Read-outs that look alike come from different tables or passages of the source. One block for each compound: values may come before it.

How the values were obtained:
[1] = presumably rapid in vivo hydrolysis, ref [31]–[32]
[2] = rat, 60 min p.i., ref [32]
[3] = Sprague-Dawley rats, 5 min p.i.; ref [12]
[4] = Wistar rats, 60 min p.i., ref [16]

Compound: CCN(CC)c1ccc2c(-c3ccccc3C(=O)OCC[18F])c3ccc(=[N+](CC)CC)cc-3oc2c1 [[^18F]3, 2-[^18F]fluoroethyl rhodamine B]
accumulation in mouse myocardium [1]: did not accumulate in mouse myocardium
Heart/blood ([2]; tissue ratio): 25.8
Blood [2]: 0.08 ± 0.03 %ID/g
Bone [2]: 0.45 ± 0.08 %ID/g
Gut [2]: 2.40 ± 0.53 %ID/g
Heart [2]: 2.06 ± 0.61 %ID/g
Kidney [2]: 8.31 ± 0.81 %ID/g
Liver [2]: 0.89 ± 0.07 %ID/g
Lung [2]: 1.78 ± 0.65 %ID/g
Muscle [2]: 0.16 ± 0.04 %ID/g
Skin [2]: 0.20 ± 0.02 %ID/g
Spleen [2]: 5.63 ± 0.78 %ID/g

heart uptake (Sprague-Dawley rats, 60 min p.i., ref [17], [46]): 3.3 %ID/g
liver concentration (Wistar rats, 10 min p.i., ref [16]): 0.99 %ID/g
heart uptake [4]: 2.06 %ID/g
liver concentration [4]: 0.38 %ID/g
Compound: CC(C)(C)n1ncc(OCc2ccc(COCC[18F])cc2)c(Cl)c1=O [Flurpiridaz F 18]

heart uptake [3]: 1.64 %ID/g
heart-to-blood ratio [3]: 11
Compound: Fc1ccc([P+](c2ccccc2)(c2ccccc2)c2ccccc2)cc1 [^18F-FTPP]
